Assay results as given in patent publication US8257928B2, “Methods for predicting and treating tumors resistant to drug, immunotherapy and radiation” (The Regents of the University of California, priority 2008, dated 2012).

Assays:
Type in all cases: cell-based, human
HMT3522 T4-2 cells [1] = assay: Phenotypic reversion in three dimensional rBM cultures; conditions: tyrphostin AG 1478 100 nM
Excerpt: (§1) Non-neoplastic HMT3522 S1 breast epithelial cells or neoplastic HMT3522 T4-2 cells were embedded (8.5×10^5/ml) within reconstituted basement membrane (rBM) gel (Matrigcl, BD Biosciences) in chamber slides (Lab-Tek chamber slides, Nunc) according to the procedures described in U.S. Pat. No. 6,123,941 and Nat. Method. 4:359-365 (2007). The three dimensional cultures were maintained for 12 days before induction of cell death. Phenotypic reversion of HMT3522 T4-2 cells in three dimensional rBM cultures was performed using an epidermal growth factor receptor (EGFR) specific tyrosine kinase inhibitor tyrphostin AG 1478 (100 nM) (Calbiochem), as previously described (Proc. Natl. Acad. Sci. USA 95:14821-14826 (1998))

N-CoR2 = assay: Immunoblot of N-CoR2 protein abundance in 2D, 3D and reverted cultures; conditions: T4-2 aggregates reverted into organized spheroids by EGFR inhibition, vs disorganized 3D aggregates
Protocol: For immunoblot analysis, cell colonies (S1 acini or T4-2 cellular aggregates) in 3D rBM were isolated using ice-cold PBS/EDTA. Total cell lysates from monolayered cells or isolated colonies were prepared in Laemmli lysing buffer containing protease inhibitors and immunoblot analysis was performed as described (Exp. Cell Res. 298:122-132 (2004)).

HMT3522 S1 cells [2] = assay: Percent cell death of 3D rBM acini (active caspase 3; Live/Dead assay for IR); conditions: stable N-CoR2 downregulation vs control cells, range of drug concentrations or IR doses
Excerpt: The oligonucleotides specifying the small hairpin RNAs (shRNAs) were subcloned from pSilencer-H1 into pLZRS-MFG-CMV-Neo-U6, a recombinant self-inactivating retroviral vector constructed from the backbone of an MFG provirus (Proc. Natl. Acad. Sci. USA 85:6460-6464 (1988); Proc. Natl. Acad. Sci. USA 90:3539-3543 (1993)), which directs the expression of shRNA under the control of the U6 promoter. Amphotropic retrovirus was produced in Phoenix ampho cells (provided by Professor G. Nolan, Stanford Medical Center) with packaging vectors pCgp and pVSVG to boost viral titer. S1 cells or T4-2 cells, maintained in monolayer cultures, were then spin infected with retrovirus carrying the various RNAi constructs and infected cell populations were selected using 300 μg/ml G418 (Invitrogen). […]
Percent cell death induced by TRAIL or Paclitaxel was quantified using detection of active caspase 3 (Cell Signaling) by indirect immunofluorescence as described (J. Cell Biol. 163:1397-1407 (2003)). Percent cell death induced by IR was quantified using Live/Dead Viability/Cytotoxicity Assay (Molecular Probes). […] Percent death was calculated as cells positive for ethidium bromide or active caspase 3 expressed as a percentage of the total number of cells scored by the nuclear staining.

HMT3522 T4-2 cells [3] = assay: Percent cell death in 2D monolayer, 3D rBM and reverted cultures (active caspase 3); conditions: stable N-CoR2 downregulation; TRAIL 1.0 μg/mL or Paclitaxel 20 μM
Excerpt: The oligonucleotides specifying the small hairpin RNAs (shRNAs) were subcloned from pSilencer-H1 into pLZRS-MFG-CMV-Neo-U6, a recombinant self-inactivating retroviral vector constructed from the backbone of an MFG provirus (Proc. Natl. Acad. Sci. USA 85:6460-6464 (1988); Proc. Natl. Acad. Sci. USA 90:3539-3543 (1993)), which directs the expression of shRNA under the control of the U6 promoter. Amphotropic retrovirus was produced in Phoenix ampho cells (provided by Professor G. Nolan, Stanford Medical Center) with packaging vectors pCgp and pVSVG to boost viral titer. S1 cells or T4-2 cells, maintained in monolayer cultures, were then spin infected with retrovirus carrying the various RNAi constructs and infected cell populations were selected using 300 μg/ml G418 (Invitrogen).
as §1, with “The three dimensional cultures were maintained for 12 days before induction of cell death.” left out
Apoptotic cell death of the breast epithelial cells cultured in three dimensional rBM was initiated by treatment with recombinant, purified human tumor necrosis factor-related apoptosis-inducing ligand (TRAIL) peptides (BIOMOL) or Paclitaxel (Sigma-Aldrich) as described (Cancer Cell 2:205-216 (2002)). DNA damage-induced cell death was initiated by ionizing radiation (IR) using a Mark I Cesium 137 irradiator (JL Shepherd & Associates).
Percent cell death induced by TRAIL or Paclitaxel was quantified using detection of active caspase 3 (Cell Signaling) by indirect immunofluorescence as described (J. Cell Biol. 163:1397-1407 (2003)). Percent cell death induced by IR was quantified using Live/Dead Viability/Cytotoxicity Assay (Molecular Probes). For both methods, cells were counterstained with 4′,6-diamidino-2-phenylindole (DAPI) to label cell nuclei present at different focal planes in the 3D architectures. Percent death was calculated as cells positive for ethidium bromide or active caspase 3 expressed as a percentage of the total number of cells scored by the nuclear staining.
Percent cell death induced by TRAIL was quantified using detection of active caspasc 3 as described in Example 4.

HMT3522 S1 cells [4] = assay: Cell growth rates on culture plastics and 3D acinar morphogenesis in rBM; conditions: stable RNAi vs control shRNA
Protocol: For the comparison of cell growth rates, cells were seeded on culture plastics and the cell number was determined at indicated time points. Population doublings were calculated as In (cell number at day n/cell number at day 0)/ln 2. Data were shown as mean±SEM of triplicate experiments.
To illustrate the basal surfaces and the intercellular junctions of the polarized acinar structures, the cultures were directly fixed with 2% paraformaldehyde and then incubated with primary antibodies toward β4-integrin and β-catenin, followed by FITC-(green) or Texas red-(red) conjugated secondary antibodies, respectively. Phase contrast images or immunofluorescence images were taken using a scanning confocal laser (model 2000-MP, Bio-Rad Laboratories) attached to a fluorescence microscope (model Eclipse TE-300, Nikon).

Row | Compound | phenotypic reversion of cellular aggregates in 3D rBM (HMT3522 T4-2 cells [1]) | protein abundance of N-CoR2 (N-CoR2) | sensitivity of S1 acini to death stimuli (TRAIL, Paclitaxel, IR) (HMT3522 S1 cells [2]) | increased resistance of reverted spheroidal structures to death stimuli (TRAIL, Paclitaxel) (HMT3522 T4-2 cells [3]) | growth on culture plastics, integrity and polarization of acini in 3D rBM (HMT3522 S1 cells [4])
1 | COc1cc2ncnc(Nc3cccc(Cl)c3)c2cc1OC [tyrphostin AG 1478] | phenotypic reversion of the cellular aggregates into organized spheroid-like structures | further increase in the protein abundance of N-CoR2 | – | – | –
2 | N-CoR2 shRNA: retrovirally expressed small hairpin RNA, siRNA sequence 5′-AAGGGTATCATCACCGCTGTG-3′ (SEQ ID NO:1) for N-CoR2 | – | – | much more sensitive | completely reversed | does not significantly alter
